Source: ChEMBL document CHEMBL1201862, “PubChem BioAssay data set” (2004)
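Exposure lasted 48 hours, with cells grown in 96-well plates and compounds tested at five concentrations. At the GI50, growth is halved.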 Calls of active or inactive are those of the source. Cut-off read from the data, not from the text of the source: active = GI50 up to about 1.1 µM and inactive = higher.

What was measured:
Assay in all cases: inhibition of tumour cell growth, NCI panel, 48 h
786-0 = system: 786-0
A498 = system: A498
A549 = system: A549
ACHN = system: ACHN
CCRF-CEM = system: CCRF-CEM
COLO 205 = system: COLO 205
DU-145 = system: DU-145
EKVX = system: EKVX
HCC 2998 = system: HCC 2998
HCT-116 = system: HCT-116
HCT-15 = system: HCT-15
HL-60 = system: HL-60
HOP-62 = system: HOP-62
HOP-92 = system: HOP-92
HT-29 = system: HT-29
Hs-578T = system: Hs-578T
IGROV-1 = system: IGROV-1
K562 = system: K562
KM12 = system: KM12
LOX IMVI = system: LOX IMVI
M14 = system: M14
MCF7 = system: MCF7
MDA-MB-231 = system: MDA-MB-231
MDA-MB-435 = system: MDA-MB-435
MDA-N = system: MDA-N
MOLT-4 = system: MOLT-4
Malme-3M = system: Malme-3M
NCI-H226 = system: NCI-H226
NCI-H23 = system: NCI-H23
NCI-H460 = system: NCI-H460
NCI/ADR-RES = system: NCI/ADR-RES
OVCAR-3 = system: OVCAR-3
OVCAR-4 = system: OVCAR-4
OVCAR-5 = system: OVCAR-5
OVCAR-8 = system: OVCAR-8
PC-3 = system: PC-3
RPMI-8226 = system: RPMI-8226
RXF 393 = system: RXF 393
SK-MEL-28 = system: SK-MEL-28
SK-MEL-2 = system: SK-MEL-2
SK-MEL-5 = system: SK-MEL-5
SK-OV-3 = system: SK-OV-3
SN12C = system: SN12C
SR = system: SR
SW-620 = system: SW-620
T47D = system: T47D
TK-10 = system: TK-10
UACC-257 = system: UACC-257
UACC-62 = system: UACC-62
UO-31 = system: UO-31
BT-549 = system: BT-549
CAKI-1 = system: CAKI-1
SF-295 = system: SF-295
SF-539 = system: SF-539
SNB-19 = system: SNB-19
U-251 = system: U-251
NCI-H522 = system: NCI-H522
SF-268 = system: SF-268
SNB-75 = system: SNB-75

For `CCOC(=O)N1CCC(=C2c3ccc(Cl)cc3CCc3cccnc32)CC1` [LORATADINE], the GI50 (786-0) was 15.2 µM (inactive), the GI50 (A498) was 0.849 µM (active) and the GI50 (A549) was 13.4 µM (inactive). For the same compound, the GI50 (ACHN) was 4.15 µM (inactive), the GI50 (CCRF-CEM) was 4.32 µM (inactive) and the GI50 (COLO 205) was 9.14 µM (inactive). For the same compound, the GI50 (DU-145) was 11.5 µM (inactive), the GI50 (EKVX) was 13.9 µM (inactive) and the GI50 (HCC 2998) was 10 µM (inactive). The GI50 (HCT-116) was 11.2 µM (inactive), the GI50 (HCT-15) was 7.55 µM and the GI50 (HL-60) was 6.12 µM (inactive). For the same compound, the GI50 (HOP-62) was 15.2 µM (inactive), the GI50 (HOP-92) was 10 µM (inactive) and the GI50 (HT-29) was 3.18 µM (inactive). The GI50 (Hs-578T) was 26.9 µM (inactive), the GI50 (IGROV-1) was 1.79 µM (inactive) and the GI50 (K562) was 6.12 µM (inactive). The GI50 (KM12) was 10.6 µM (inactive), the GI50 (LOX IMVI) was 10.9 µM (inactive) and the GI50 (M14) was 12.4 µM (inactive). For the same compound, the GI50 (MCF7) was 7.4 µM (inactive), the GI50 (MDA-MB-231) was 20 µM (inactive) and the GI50 (MDA-MB-435) was 8.83 µM (inactive). The GI50 (MDA-N) was 4.55 µM (inactive), the GI50 (MOLT-4) was 4.23 µM (inactive) and the GI50 (Malme-3M) was 5.94 µM (inactive). For the same compound, the GI50 (NCI-H226) was 14.6 µM (inactive), the GI50 (NCI-H23) was 15.8 µM (inactive) and the GI50 (NCI-H460) was 3.44 µM (inactive). For the same compound, the GI50 (NCI/ADR-RES) was 6.56 µM (inactive), the GI50 (OVCAR-3) was 7.78 µM (inactive) and the GI50 (OVCAR-4) was 3.69 µM (inactive). The GI50 (OVCAR-5) was 20.8 µM (inactive), the GI50 (OVCAR-8) was 12.7 µM (inactive) and the GI50 (PC-3) was 10.4 µM (inactive). For the same compound, the GI50 (RPMI-8226) was 3.83 µM (inactive), the GI50 (RXF 393) was 6.71 µM (inactive) and the GI50 (SK-MEL-28) was 5.57 µM (inactive). The GI50 (SK-MEL-2) was 11.2 µM (inactive), the GI50 (SK-MEL-5) was 2.08 µM (inactive) and the GI50 (SK-OV-3) was 15.5 µM (inactive). For the same compound, the GI50 (SN12C) was 10.2 µM (inactive), the GI50 (SR) was 2.64 µM (inactive) and the GI50 (SW-620) was 11.8 µM (inactive). For the same compound, the GI50 (T47D) was 13.3 µM (inactive), the GI50 (TK-10) was 13.2 µM (inactive) and the GI50 (UACC-257) was 15 µM (inactive). For the same compound, the GI50 (UACC-62) was 4.73 µM (inactive) and the GI50 (UO-31) was 1.64 µM (inactive).

With `CN1C(=O)C(O)C[C@@H]1c1ccc(F)cc1` (stereo not given in full) the GI50 (786-0) was > 100 µM (inactive), the GI50 (A549) was > 100 µM (inactive) and the GI50 (ACHN) was > 100 µM (inactive). For the same compound, the GI50 (BT-549) was > 100 µM (inactive), the GI50 (CAKI-1) was > 100 µM (inactive) and the GI50 (CCRF-CEM) was > 100 µM (inactive). For the same compound, the GI50 (COLO 205) was > 100 µM (inactive), the GI50 (DU-145) was > 100 µM (inactive) and the GI50 (EKVX) was > 100 µM (inactive). The GI50 (HCC 2998) was > 100 µM (inactive), the GI50 (HCT-116) was > 100 µM (inactive) and the GI50 (HCT-15) was greater than 100 µM. The GI50 (HL-60) was > 100 µM (inactive), the GI50 (HOP-62) was > 100 µM (inactive) and the GI50 (HOP-92) was > 100 µM (inactive). For the same compound, the GI50 (HT-29) was > 100 µM (inactive), the GI50 (IGROV-1) was > 100 µM (inactive) and the GI50 (LOX IMVI) was > 100 µM (inactive). The GI50 (M14) was > 100 µM (inactive), the GI50 (MCF7) was > 100 µM (inactive) and the GI50 (MDA-MB-231) was > 100 µM (inactive). For the same compound, the GI50 (MDA-MB-435) was > 100 µM (inactive), the GI50 (MDA-N) was > 100 µM (inactive) and the GI50 (MOLT-4) was > 100 µM (inactive). For the same compound, the GI50 (NCI-H226) was > 100 µM (inactive), the GI50 (NCI-H23) was > 100 µM (inactive) and the GI50 (OVCAR-3) was > 100 µM (inactive). The GI50 (OVCAR-4) was > 100 µM (inactive), the GI50 (OVCAR-5) was > 100 µM (inactive) and the GI50 (PC-3) was > 100 µM (inactive). The GI50 (RPMI-8226) was > 100 µM (inactive), the GI50 (RXF 393) was > 100 µM (inactive) and the GI50 (SF-295) was > 100 µM (inactive). The GI50 (SF-539) was > 100 µM (inactive), the GI50 (SK-MEL-28) was > 100 µM (inactive) and the GI50 (SK-MEL-2) was > 100 µM (inactive). For the same compound, the GI50 (SK-MEL-5) was > 100 µM (inactive), the GI50 (SK-OV-3) was > 100 µM (inactive) and the GI50 (SN12C) was > 100 µM (inactive). For the same compound, the GI50 (SNB-19) was > 100 µM (inactive), the GI50 (SR) was > 100 µM (inactive) and the GI50 (T47D) was > 100 µM (inactive). For the same compound, the GI50 (TK-10) was > 100 µM (inactive), the GI50 (U-251) was > 100 µM (inactive) and the GI50 (UACC-257) was > 100 µM (inactive). The GI50 (UACC-62) was > 100 µM (inactive) and the GI50 (UO-31) was > 100 µM (inactive).

With `Cc1ccc(C(=O)Nc2ccc(S(=O)(=O)O)c3cc(S(=O)(=O)O)cc(S(=O)(=O)O)c23)cc1NC(=S)Nc1cc(C(=O)Nc2ccc(S(=O)(=O)O)c3cc(S(=O)(=O)O)cc(S(=O)(=O)O)c23)ccc1C` the GI50 (786-0) was > 75 µM (inactive), the GI50 (A498) was > 75 µM (inactive) and the GI50 (A549) was > 75 µM (inactive). The GI50 (ACHN) was > 75 µM (inactive), the GI50 (BT-549) was > 75 µM (inactive) and the GI50 (CAKI-1) was > 75 µM (inactive). For the same compound, the GI50 (CCRF-CEM) was > 75 µM (inactive), the GI50 (DU-145) was > 75 µM (inactive) and the GI50 (HCC 2998) was > 75 µM (inactive). For the same compound, the GI50 (HCT-116) was > 75 µM (inactive), the GI50 (HCT-15) was greater than 75 µM and the GI50 (HL-60) was > 75 µM (inactive). The GI50 (HOP-62) was > 75 µM (inactive), the GI50 (HT-29) was > 75 µM (inactive) and the GI50 (IGROV-1) was > 75 µM (inactive). The GI50 (K562) was > 75 µM (inactive), the GI50 (LOX IMVI) was > 75 µM (inactive) and the GI50 (M14) was > 75 µM (inactive). For the same compound, the GI50 (MCF7) was > 75 µM (inactive), the GI50 (MDA-MB-231) was > 75 µM (inactive) and the GI50 (MDA-MB-435) was > 75 µM (inactive). For the same compound, the GI50 (MDA-N) was > 75 µM (inactive), the GI50 (MOLT-4) was > 75 µM (inactive) and the GI50 (Malme-3M) was > 75 µM (inactive). For the same compound, the GI50 (NCI-H226) was > 75 µM (inactive), the GI50 (NCI-H23) was > 75 µM (inactive) and the GI50 (NCI-H460) was > 75 µM (inactive). For the same compound, the GI50 (NCI-H522) was > 75 µM (inactive), the GI50 (OVCAR-3) was > 75 µM (inactive) and the GI50 (OVCAR-4) was > 75 µM (inactive). For the same compound, the GI50 (OVCAR-5) was > 75 µM (inactive), the GI50 (OVCAR-8) was > 75 µM (inactive) and the GI50 (PC-3) was > 75 µM (inactive). For the same compound, the GI50 (RPMI-8226) was > 75 µM (inactive), the GI50 (SF-268) was > 75 µM (inactive) and the GI50 (SK-MEL-28) was > 75 µM (inactive). For the same compound, the GI50 (SK-MEL-2) was > 75 µM (inactive), the GI50 (SK-MEL-5) was > 75 µM (inactive) and the GI50 (SN12C) was > 75 µM (inactive). For the same compound, the GI50 (SNB-19) was > 75 µM (inactive), the GI50 (SNB-75) was > 75 µM (inactive) and the GI50 (SR) was > 75 µM (inactive). The GI50 (SW-620) was > 75 µM (inactive), the GI50 (TK-10) was > 75 µM (inactive) and the GI50 (U-251) was > 75 µM (inactive). The GI50 (UACC-257) was > 75 µM (inactive), the GI50 (UACC-62) was > 75 µM (inactive) and the GI50 (UO-31) was > 75 µM (inactive).
